# Laboratory results: patent US8211861B2, “Compositions for and methods of enhancing the immune response to antigens” (Wittycell, priority 2007, dated 2012)
# B1: ovalbumin (protein, UniProt P01012 2-386, looked up)
# Ovalbumin: GSIGAASMEFCFDVFKELKVHHANENIFYCPIAIMSALAMVYLGAKDSTRTQINKVVRFDKLPGFGDSIEAQCGTSVNVHSSLRDILNQITKPNDVYSFSLASRLYAEERYPILPEYLQCVKELYRGGLEPINFQTAADQARELINSWVESQTNGIIRNVLQPSSVDSQTAMVLVNAIVFKGLWEKAFKDEDTQAMPFRVTEQESKPVQMMYQIGLFRVASMASEKMKILELPFASGTMSMLVLLPDEVSGLEQLESIINFEKLTEWTSSNVMEERKIKVYLPRMKMEEKYNLTSVLMAMGITDVFSSSANLSGISSAESLKISQAVHAAHAEINEAGREVVGSAEAGVDAASVSEEFRADHPFLFCIKHIATNAVLFFGRCVSP
# notes: nominal antigen, Ovalbumin grade VII, Sigma
# Key:
# [1] = tested on: Ova-specific target cells; experiment: in vivo specific cytotoxic T cell (CD8+) response, specific lysis of Ova-specific target cells; parameters: species or system mouse; conditions: for specific lysis of Ova-specific target cells in blood: Example 1, FIG. 1, 1 μg adjuvant with 50 μg Ova, day 0, target cells day 10, read day 11; for specific lysis of Ova-specific target cells in blood / average Ova-specific cytotoxic response (percent specific lysis): IV; for percentage of specific lysis of the target cells by CD8+ T cells: Example 5 Experiment B, FIG. 8, 50 μg OVA with 10 ng adjuvant; for percentage of specific lysis of the target cells by CD8+ T cells / average OVA-specific cytotoxic response (percent specific lysis) / enhancement of the CD8+ T cell response at low doses (specific lysis): IM; for percentage of specific lysis of the target cells by CD8+ T cells / average Ova-specific cytotoxic response (percent specific lysis) / average OVA-specific cytotoxic response (percent specific lysis): blood day 11; for average Ova-specific cytotoxic response (percent specific lysis): Example 2, FIG. 2; for average Ova-specific cytotoxic response (percent specific lysis) / average OVA-specific cytotoxic response (percent specific lysis): 400 μg Ova with or without 1 μg adjuvant; for average OVA-specific cytotoxic response (percent specific lysis): Example 2, FIG. 3; for enhancement of the CD8+ T cell response at low doses (specific lysis): Example 5, FIGS. 7 and 8, 50 μg OVA with 100 ng or 10 ng adjuvant
# [2] = tested on: CD8+ T cells responsive to OVA; experiment: SIINFEKL pentamer assay, percentage of OVA-specific CD8+ T cells; format: in vivo, mouse; conditions: IM, days 0 and 14, blood day 21
# Description: To verify the results obtained using the in vivo cytotoxicity assay described in the Examples above, similar experiments were performed and CD8+ T cell activation was determined by measuring the percentage of OVA-specific CD8+ T cells using a pentamer assay. Briefly, mice were injected intramuscularly with the indicated amounts of OVA and test adjuvant compound at either 1 μg or 100 ng per mouse, respectively on day 0 as follows:
# Experiment A: • Group 1: 100 μl of PBS; • Group 2: 50 μg of Ova into 100 μl PBS; • Group 3: 50 μg of Ova with 1 μg αGalCer; • Group 4: 50 μg of Ova with 1 μg PBS-11 • Group 5: 50 μg of Ova with 1 μg PBS-14 • Group 6: 50 μg of Ova with […] PBS-57 • Group 7: 50 μg of Ova with 1 μg PBS-96
# Experiment B: • Group 1: 100 μl of PBS; • Group 2: 50 μg of Ova into 100 μl PBS; • Group 3: 50 μg of Ova with 100 ng αGalCer; • Group 4: 50 μg of Ova with 100 ng PBS-11 • Group 5: 50 μg of Ova with 100 ng PBS-14 • Group 6: 50 μg of Ova with 100 ng PBS-57 • Group 7: […] of Ova with 100 ng PBS-96 A second injection was administered to the mice on day 14 and blood was collected from the mice on day 21. The lymphocytes were collected and analyzed by FACS analysis using H-2K^b SIINFEKL pentamer and CD8 antibody to detect CD8+ T cells responsive to OVA.
# OVA-specific IgG2a = OVA-specific IgG2a ELISA after intramuscular immunization; format: in vivo, mouse; conditions: FIG. 12; IM, 50 μg OVA with 100 ng adjuvant, 14 days post-injection
# Description: Mice (6 per group) were injected intramuscularly with 50 μg of OVA either alone or in combination with 100 ng of the indicated adjuvants (Freund's adjuvant was used as a positive control) as follows: • Group 1: […] of Ova with CFA/IFA (Positive control) • Group 2: 50 μg of Ova • Group 3: 50 μg of Ova and 100 ng of αGalCer • Group 4: 50 μg of Ova and 100 ng of PBS-11 • Group 5: 50 μg of Ova and 100 ng of PBS-14 • Group 6: 50 μg of Ova and 100 ng of PBS-57 • Group 7: 50 μg of Ova and 100 ng of PBS-96 At 14 days post-injection, blood samples were collected and ELISAs for IgG1 and IgG2a were performed using mouse monoclonal antibodies specific for OVA isotype IgG1 or IgG2a. The results are shown as the titer of the antibody in peripheral blood in ng/ml. The results for IgG1 are depicted in FIG. 11 and those for IgG2a are depicted in FIG. 12.
# [3] = Example 6 Experiment A, FIG. 9, 50 μg Ova with 1 μg adjuvant
# [4] = Example 6 Experiment B, FIG. 10, 50 μg Ova with 100 ng adjuvant
Molecule,specific lysis of Ova-specific target cells in blood [1],percentage of specific lysis of the target cells by CD8+ T cells [1],"percentage of OVA specific CD8+ T cells (SIINFEKL pentamer) [2, 3]",average Ova-specific cytotoxic response (percent specific lysis) [1],average OVA-specific cytotoxic response (percent specific lysis) [1],enhancement of the CD8+ T cell response at low doses (specific lysis) [1],"percentage of OVA specific CD8+ T cells (SIINFEKL pentamer) [2, 4]",OVA specific IgG2a titer in peripheral blood (OVA-specific IgG2a)
"CCCCCCCCCCCCCCCCCCCCCCCCCC(=O)N[C@@H](CO[C@H]1O[C@H](CNC(=O)CCCC[C@@H]2SC[C@@H]3NC(=O)N[C@@H]32)[C@H](O)[C@H](O)[C@H]1O)[C@H](O)[C@H](O)CCCCCCCCCCCCCC [PBS-11, reference compound]",did not result in specific lysis of cells,indistinguishable from the controls,not as effective,–,–,–,–,–
CCCCCCCCCCCCCCCCCCCCCCCCCC(=O)N[C@@H](CO[C@H]1O[C@H](CNC(C)=O)[C@H](O)[C@H](O)[C@H]1O)[C@H](O)[C@H](O)CCCCCCCCCCCCCC [PBS-14],resulted in cytotoxic lysis of Ova-specific target cells,–,enhanced the percentage of OVA specific CD8+ T cells,83.3±6.1%,52.07±29.56%,unexpectedly better than other adjuvants,surprisingly much better at enhancing the CD8+ T cell response,enhanced the OVA specific IgG2a titer about as well as Freund's adjuvant and much better than PBS-57
"CCCCCCCC/C=C\CCCCCCCCCCCCCC(=O)N[C@@H](CO[C@H]1O[C@H](CNC(C)=O)[C@H](O)[C@H](O)[C@H]1O)[C@H](O)[C@H](O)CCCCCCCCCCCCCC [PBS-57, reference compound]",–,indistinguishable from the controls,enhanced the percentage of OVA specific CD8+ T cells,88.1±6.2%,56.11±13.34%,–,–,–
CCCCCCCCCCCCCCCCCCCCCCCC(=O)N[C@@H](CO[C@H]1O[C@H](CNC(C)=O)[C@H](O)[C@H](O)[C@H]1O)[C@H](O)[C@H](O)CCCCCCCCCCCCCC [PBS-96],resulted in cytotoxic lysis of Ova-specific target cells,–,enhanced the percentage of OVA specific CD8+ T cells,89.2±10.3%,50.29±42.6%,unexpectedly better than other adjuvants,surprisingly much better at enhancing the CD8+ T cell response,enhanced the OVA specific IgG2a titer about as well as Freund's adjuvant and much better than PBS-57
"CCCCCCCCCCCCCCCCCCCCCCCCCC(=O)N[C@@H](CO[C@H]1O[C@H](CO)[C@H](O)[C@H](O)[C@H]1O)[C@H](O)[C@H](O)CCCCCCCCCCCCCC [αGalCer, α-galactosyceramide, reference compound]",–,indistinguishable from the controls,not as effective,–,–,–,–,–
B1,–,–,–,11.8±14.4%,1.60±14.33%,–,–,–
